System: DRG cells
Experiment: CGRP release from DRG cells following cisplatin treatment
Type: cell-based, rat
Conditions: E3330 20 μM pretreatment 3 days, then cisplatin 10 μM 24 hours
Protocol: EXAMPLE. CGRP. Release studies were performed on cells. Briefly, neuronal cultures were washed once with HEPES buffer consisting of 25 HEPES, 135 NaCl, 3.5 KCl, 2.5 CaCl2, 1 MgCl2, 3.3 d-glucose (each in mmol/L), and 0.1% bovine serum albumin (pH 7.4), maintained at 37° C., and then incubated for successive 10-min intervals with 0.4 mL of the same buffer in the absence or presence of drugs. Basal or resting release was determined by exposing the cells to HEPES buffer alone, whereas stimulated release was determined by exposing the cultures to 30 nmol/L capsaicin. Cells then were reexposed to HEPES buffer without drugs for one or two 10-min incubations to reestablish resting release. During incubations, the cells were maintained in at 37° C. After each incubation, the buffer was removed to measure the amount of CGRP using RIAs. […] Total content is determined by adding the total amount released in all incubations to the amount remaining in the cells. The release data is calculated as a percentage of the total peptide content in the cells. Because CGRP was measured by RIA, results are expressed as CGRP-like immunoreactivity (iCGRP). […]
EXAMPLE. […] Basal levels of CGRP without induction and cumulative total basal are both monitored, indicating correct functioning of the assay.

CCCCCCCCC/C(=C\C1=C(C)C(=O)C(OC)=C(OC)C1=O)C(=O)O [Example 28]
total content CGRP (FIG. 3(B)): no statistical significance difference
capsaicin-induced CGRP release from DRG cells after cisplatin (capsaicin 30 nM): recovery of CGRP release

— patent publication US11160770B2, “Compounds, compositions and methods for treating oxidative DNA damage disorders” (Indiana University Research and Technology Corporation, priority 2011, dated 2021)
